Experiments:
[1] = target: T1, Thyroid hormone receptor beta (Homo sapiens, UniProt P10828)
T1 sequence (P10828 whole entry): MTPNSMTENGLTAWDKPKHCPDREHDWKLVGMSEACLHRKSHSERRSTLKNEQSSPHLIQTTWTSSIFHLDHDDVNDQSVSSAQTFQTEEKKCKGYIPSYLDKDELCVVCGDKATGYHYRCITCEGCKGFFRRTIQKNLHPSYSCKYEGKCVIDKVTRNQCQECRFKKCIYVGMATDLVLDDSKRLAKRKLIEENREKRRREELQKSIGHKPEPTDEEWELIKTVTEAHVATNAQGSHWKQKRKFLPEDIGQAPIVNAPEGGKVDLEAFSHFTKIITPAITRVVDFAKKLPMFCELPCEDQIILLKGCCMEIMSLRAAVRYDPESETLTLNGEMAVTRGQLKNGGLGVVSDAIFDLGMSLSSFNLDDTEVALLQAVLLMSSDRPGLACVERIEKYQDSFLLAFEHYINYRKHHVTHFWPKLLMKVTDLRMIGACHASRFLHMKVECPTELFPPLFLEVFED

[2] = target: T2, Thyroid hormone receptor alpha (Homo sapiens, UniProt P10827)
T2 sequence (P10827 whole entry): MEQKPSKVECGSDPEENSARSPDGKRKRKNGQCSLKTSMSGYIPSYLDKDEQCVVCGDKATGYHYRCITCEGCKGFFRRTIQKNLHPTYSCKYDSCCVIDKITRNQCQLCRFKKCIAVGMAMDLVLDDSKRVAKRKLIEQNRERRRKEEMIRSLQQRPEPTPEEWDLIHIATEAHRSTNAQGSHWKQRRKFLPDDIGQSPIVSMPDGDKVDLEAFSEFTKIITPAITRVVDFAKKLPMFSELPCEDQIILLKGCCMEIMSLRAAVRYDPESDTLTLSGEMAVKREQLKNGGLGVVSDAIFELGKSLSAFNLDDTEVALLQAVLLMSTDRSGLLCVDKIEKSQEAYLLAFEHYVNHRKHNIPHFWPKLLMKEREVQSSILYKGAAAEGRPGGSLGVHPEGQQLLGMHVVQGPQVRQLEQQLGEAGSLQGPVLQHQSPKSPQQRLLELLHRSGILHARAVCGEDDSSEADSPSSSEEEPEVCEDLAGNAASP

[3] = target: T1, Thyroid hormone receptor beta; test: Half-maximum activation of human Thyroid hormone receptor beta 1 (hTRbeta1)
[4] = target: T2, Thyroid hormone receptor alpha; test: Half-maximum activation of human Thyroid hormone receptor alpha-1 (hTRalpha1)

SMILES | Kd [1] | Kd [2] | EC50 [3] | IC50 [3] | IC50 [4]
Cc1cc(OCC(=O)O)cc(C)c1Cc1cc(C#Cc2ccc(N)cc2)c(O)c(C(C)C)c1 | 90 nM | 330 nM |  |  | 
Cc1cc(OCC(=O)O)cc(C)c1Cc1cc(C#Cc2ccccc2)c(O)c(C(C)C)c1 | 37 nM | 490 nM | 500 nM |  | 
Cc1cc(OCC(=O)O)cc(C)c1Cc1cc(-c2ccc([N+](=O)[O-])cc2)c(O)c(C(C)C)c1 | 35 nM | 200 nM |  | 680 nM | 5000 nM
CCCCCc1ccc(C#Cc2cc(Cc3c(C)cc(OCC(=O)O)cc3C)cc(C(C)C)c2O)cc1 | 0.52 nM | 5.2 nM | 380 nM |  | 
Cc1cc(OCC(=O)O)cc(C)c1Cc1cc(C#Cc2ccc([N+](=O)[O-])cc2)c(O)c(C(C)C)c1 | 20 nM | 93 nM |  | 370 nM | 950 nM
